Laboratory results from patent US6034097A, “Isoquinolines useful as analgesics” (Astra AB, priority 1996, dated 2000).
Counter-ions that a name gives are not always drawn.

How the values were obtained:
[1] = test system: kidney brush border protease (KBBP); experiment: In vitro stability in kidney brush border protease (KBBP) at 37° C.; type: in vitro ADME; details: PBS pH 7.4, 37° C.; for Metabolites in KBBP: up to 1440 minutes
Procedure: (§1) In vitro stability of the compounds of the invention in rat whole blood (RWB) at 37° C. and in kidney brush border protease (KBBP) at 37° C.
1.0 mg of the compounds were dissolved in 1 ml PBS pH 7.4 and 500 µL of proteases (1.14 mg of protein/ml) were added.
An initial aliquot was taken at time 0, and the reaction was immediately stopped by placing the sample in a bath of boiling water for 2 minutes (the other time intervals were 5, 15, 30, 60, 120, 1440 minutes).
Blank samples without compounds were also prepared.
The aliquoted samples were filtered on a micron 0.45 filter and the resulting sample were analyzed by HPLC.

[2] = In vitro stability in rat whole blood (RWB) at 37° C.; type: in vitro ADME
Procedure: as §1
The compound was initially dissolved in water or in 10% methyl sulfoxide (DMSO)/water to make a stock solution of 10 mg/ml.
The stock solution was added to 15 ml of freshly harvested rat whole blood and incubated at 37° C.
Blanks were prepared without spiking with compounds in rat whole blood.
Aliquots were then taken at specific time intervals, centrifuged, and a fraction of the supernatant was extracted with acetonitrile or with a solution of acetonitrile and 10% acetic acid.
The solvent(s) was(were) removed by evaporation. The resulting residue was analyzed by HPLC.

μ receptors [3] = experiment: Guinea Pig Ileum (GPI) assay, longitudinal muscle preparation; type: cell-based
Procedure: (§2) The opioid activity of the peptides was assessed in vitro using the guinea pig ileum (GPI) longitudinal muscle preparation and their antinociceptive activity was determined in vivo in PBQ induced writhing models (peripheral activity) and in the hot-plate test (central activity) in rodents. […] Peripheral analgesia is shown by a high potency in the writhing test coupled with a low potency in the hot-plate test.
(§3) PBQ (phenyl-.rho.-benzoquinone) induced writhing in mice is an assessment of both central and peripheral analgesia. For experimental protocol see Sigmund et al., Proc. Soc. Exp. Biol. Med., 15, p. 729(1957) which is incorporated herein by reference. Central analgesia is determined by the inhibition of a hot-plate response in mice. For experimental protocol see G. Woolfe and A. Macdonald, J. Pharmacol. Exp. Ther., 80, p.300 (1944) which is incorporated herein by reference. Assays measuring opioid receptor binding affinities for μ and δ receptors as well as GPI and MVD assays are determined through experimental protocol set out in Schiller et al., Biophys. Res. Commun., 85, p.1322 (1975) incorporated herein by reference.
The activity of the peptide compounds on μ receptors was determined using the Guinea Pig Ileum (GPI) assay (longitudinal muscle preparation) according to the procedures described in Schiller et al., Biophys. Res. Commun., 85, p.1322 (1975).

μ receptors [4] = target: T1, μ receptors (Rattus norvegicus, UniProt P33535); experiment: Radioligand binding assay, μ receptor, (3H)-DAMGO, rat brain membranes; details: Ki from IC50 by Cheng and Prusoff
T1 construct: the brains minus cerebellum were removed and place in ice-cold saline solution and then homogenized; from tissue; host or cells: rat brain minus cerebellum, membrane homogenate
T1 sequence (P33535 whole entry): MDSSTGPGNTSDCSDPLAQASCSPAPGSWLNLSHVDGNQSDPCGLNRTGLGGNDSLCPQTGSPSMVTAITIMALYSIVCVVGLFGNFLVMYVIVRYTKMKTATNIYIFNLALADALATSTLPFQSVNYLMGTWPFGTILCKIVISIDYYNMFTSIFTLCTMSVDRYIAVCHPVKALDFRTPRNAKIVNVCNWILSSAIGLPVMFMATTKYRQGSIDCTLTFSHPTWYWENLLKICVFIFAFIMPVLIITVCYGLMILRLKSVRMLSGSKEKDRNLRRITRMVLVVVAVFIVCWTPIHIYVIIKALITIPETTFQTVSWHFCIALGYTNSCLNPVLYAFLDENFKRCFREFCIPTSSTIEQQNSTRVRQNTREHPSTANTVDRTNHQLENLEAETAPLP
Procedure: as §3
(§4) Male Sprague-Dawley rats weighing between 350-450 g were sacrificed by inhalation of CO2. The rats were decapitated and the brains minus cerebellum were removed and place in ice-cold saline solution and then homogenized in ice-cold 50 mM Tris buffer pH 7.4 (10 ml/brain). The membranes were centrifuged at 14000 rpm for 30 min. at 4° C. The pellets were re-suspended in approximately 6 ml/brain of ice-cold Tris buffer 50 mM pH 7.4 and stored at -78° C. until ready for use. Protein quantification of the brain homogenate was conducted according to protein assay kit purchased (Bio-Rad).
(§5) (^3 H)-DAMGO and (^3 H) DAGLE were used as radioligands for the μ and δ receptors, respectively. Radioligand 50 μl, membranes 100 μl and serially diluted test compound were incubated for 1 hr at 22° C. Non specific binding was determined using 500 fold excess of unlabeled ligand in the presence of tracer and membranes. Free ligand was separated from bound by filtration through Whatman GF/B paper (presoaked in polyethylenimine 1% aqueous solution) and rinsing with ice-cold 50 mM Tris pH 7.4 using a Brandel cell harvester. The filters were dried and radioactivity was counted in a 24 well microplate in the presence of […] scintillant per well. Radioactivity was measured using a Wallac 1450 Microbeta counter.
(§6) Ki's for the various compounds were determined from the IC50 according to the Cheng and Prusoff equation.

κ receptor = target: T2, κ receptor (Rattus norvegicus, UniProt P34975); experiment: Radioligand binding assay, κ receptor (Table 1); details: binding inhibition constant
T2 construct: from tissue
T2 sequence (P34975 whole entry): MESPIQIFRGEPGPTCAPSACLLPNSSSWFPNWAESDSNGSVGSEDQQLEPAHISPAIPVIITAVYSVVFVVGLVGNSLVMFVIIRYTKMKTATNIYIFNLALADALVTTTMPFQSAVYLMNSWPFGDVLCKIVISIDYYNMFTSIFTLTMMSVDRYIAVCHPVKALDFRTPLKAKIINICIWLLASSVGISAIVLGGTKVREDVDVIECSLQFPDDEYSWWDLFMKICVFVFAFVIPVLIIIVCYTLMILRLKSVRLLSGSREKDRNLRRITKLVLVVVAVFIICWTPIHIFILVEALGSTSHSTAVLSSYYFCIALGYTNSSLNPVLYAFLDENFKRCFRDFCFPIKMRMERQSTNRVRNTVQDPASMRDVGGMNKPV

δ receptors = target: T3, δ receptors (Rattus norvegicus, UniProt P33533); experiment: Radioligand binding assay, δ receptor, (3H) DAGLE, rat brain membranes; details: Ki from IC50 by Cheng and Prusoff
T3 construct: the brains minus cerebellum were removed and place in ice-cold saline solution and then homogenized; from tissue; host or cells: rat brain minus cerebellum, membrane homogenate
T3 sequence (P33533 whole entry): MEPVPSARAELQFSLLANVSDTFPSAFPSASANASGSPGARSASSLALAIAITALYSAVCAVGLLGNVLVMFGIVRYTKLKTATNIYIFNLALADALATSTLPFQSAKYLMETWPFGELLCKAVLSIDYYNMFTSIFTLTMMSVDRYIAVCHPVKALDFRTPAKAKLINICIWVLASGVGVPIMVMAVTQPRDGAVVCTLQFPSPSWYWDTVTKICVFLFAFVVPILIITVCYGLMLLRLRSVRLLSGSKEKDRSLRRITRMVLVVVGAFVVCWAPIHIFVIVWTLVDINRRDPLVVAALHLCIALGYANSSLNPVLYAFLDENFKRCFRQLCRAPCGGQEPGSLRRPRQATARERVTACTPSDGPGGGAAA
Procedure: as §3, §4
as §5, with “Free ligand was separated from bound by filtration through Whatman GF/B paper (presoaked in polyethylenimine 1% aqueous solution) and rinsing with ice-cold 50 mM Tris pH 7.4 using a Brandel cell harvester.” left out
as §6

CD #1 male mice = experiment: PBQ (phenylquinone) induced writhing assay in mice; type: in vivo; details: compound by subcutaneous route, dose inducing 50% reduction in number of writhes vs control
Procedure: The term "ED50 " as shown in table 1 for the PBQ writhing assays is defined as the dose of drug which induces a 50% reduction in the number of writhes observed compared to the control. The term "ED50 " used in the hot-plate assays is defined as the dose of drug required to increase the latency of response 2-fold compared to controls and was determined by parallel-line probit analysis.
as §2, §3
The test was performed on CD #1 male mice weighing between 18 and 22 g. The mice were weighed and marked. They were injected, by intra-peritoneal route, with 0.3 ml/20 g by weight with a solution of phenylquinone at 0.02%. The contortions which appeared during a 15 minute time period following the injection were counted. The phenylquinone was injected at time intervals of 5, 20 or 60 minutes after administration of the compound (or medium, or standard) by subcutaneous route.
The 0.02% phenylquinone solution was prepared in the following fashion. […]

SMILES | half life in KBBP [1] [h] | Metabolites in KBBP [1] | Metabolites in RWB [2] | half life in RWB [2] [h] | IC50 (μ receptors [3]) [nM] | Ki (δ receptors) [nM] | ED50 PBQ writhing (CD #1 male mice) [mg/kg] | other results
Cc1cc(O)cc(C)c1C[C@H](N)C(=O)N1Cc2ccccc2C[C@H]1C(=O)NCC(O)Cc1ccccc1.O=C(O)C(F)(F)F (stereo partly drawn) [4B, 2-S-(2-Amino-3-(4-hydroxy-2,6-dimethyl-phenyl)-propionyl)-1,2,3,4-tetrahydro-isoquinoline-3-S-carboxylic acid (2-hydroxy-3-phenyl-propyl)amide trifluoroacetic salt] | > 24 | none detected | none detected | > 5.32 | 13.8 | 0.1 ± 0.02 | 16.6 | Ki (μ receptors [4]): 0.7 ± 0.27 nM; Ki (κ receptor): 20.6 ± 0.5 nM
Cc1cc(O)cc(C)c1CC(NC(=N)N)C(=O)N1Cc2ccccc2C[C@H]1C(=O)NC[C@H](O)Cc1ccccc1 (some centres unmarked) [compound #3, 2-(2-Guanidino-3-(4-hydroxy-2,6-dimethyl-phenyl)-propionyl)-1,2,3,4-tetrahydro-isoquinoline-3-S-carboxylic acid (2-R-hydroxy-3-phenyl-propyl)-amide ditrifloroacetic salt] |  |  |  |  |  | 0.56 ± 0.09 |  | Ki (μ receptors [4]; listed as #3): 2.03 ± 0.37 nM; Ki (κ receptor; listed as #3): 277 ± 13.6 nM
Cc1cc(O)cc(C)c1CC(NC(=N)N)C(=O)N1Cc2ccccc2C[C@H]1C(=O)NC[C@H](O)Cc1ccccc1.O=C(O)C(F)(F)F.O=C(O)C(F)(F)F (some centres unmarked) [compound #3A, 2-(2-Guanidino-3-(4-hydroxy-2,6-dimethyl-phenyl)-propionyl)-1,2,3,4-tetrahydro-isoquinoline-3-S-carboxylic acid (2-R-hydroxy-3-phenyl-propyl)-amide ditrifloroacetic salt] |  |  |  |  |  |  | 3.8 | Ki (μ receptors [4]; listed as #3A): 2.94 ± 0.73 nM; Ki (κ receptor; listed as #3A): 952 ± 122 nM
Cc1cc(O)cc(C)c1CC(NC(=N)N)C(=O)N1Cc2ccccc2C[C@H]1C(=O)NC[C@H](O)Cc1ccccc1 (some centres unmarked) [compound #3B, 2-(2-Guanidino-3-(4-hydroxy-2,6-dimethyl-phenyl)-propionyl)-1,2,3,4-tetrahydro-isoquinoline-3-S-carboxylic acid (2-R-hydroxy-3-phenyl-propyl)-amide ditrifloroacetic salt] |  |  |  |  | 7.3 |  |  | Ki (μ receptors [4]; listed as #3B): 0.5 nM; Ki (κ receptor; listed as #3B): 164 ± 17.5 nM
Cc1cc(O)cc(C)c1C[C@H](N)C(=O)N1Cc2ccccc2C[C@H]1C(=O)NCC(O)Cc1ccccc1.O=C(O)C(F)(F)F (stereo partly drawn) [compound #4A, 2-S-(2-Amino-3-(4-hydroxy-2,6-dimethyl-phenyl)-propionyl)-1,2,3,4-tetrahydro-isoquinoline-3-S-carboxylic acid (2-hydroxy-3-phenyl-propyl)amide trifluoroacetic salt] | > 24 | 1 detected after | none detected | > 2.1 |  |  |  | 
Cc1cc(O)cc(C)c1CC(N)C(=O)N1Cc2ccccc2C[C@H]1C(=O)NCCCc1ccccc1.O=C(O)C(F)(F)F (some centres unmarked) [compound #5A, 2-(2-Amino-3-(4-Hydroxy-2,6-dimethyl-phenyl)-propionyl)-1,2,3,4-tetrahydro-isoquinoline-3-S-carboxylic acid (3-phenyl-propyl)amide trifluoroacetic salt] | > 24 | none detected | none detected | > 24 |  |  |  | 
Cc1cc(O)cc(C)c1CC(N)C(=O)N1Cc2ccccc2CC1C(=O)NCCCc1ccccc1.O=C(O)C(F)(F)F (centres unmarked) [compound #5B, 2-(2-Amino-3-(4-Hydroxy-2,6-dimethyl-phenyl)-propionyl)-1,2,3,4-tetrahydro-isoquinoline-3-carboxylic acid (3-phenyl-propyl)amide trifluoroacetic salt] | > 24 | none detected | none detected | > 20 |  |  |  | 
Cc1cc(O)cc(C)c1CC(N)C(=O)N1Cc2ccccc2C[C@H]1C(=O)NCCCc1ccccc1.O=C(O)C(F)(F)F (some centres unmarked) [compound #6A, 2-(2-Amino-3-(4-Hydroxy-2,6-dimethyl-phenyl)-propionyl)-1,2,3,4-tetrahydro-isoquinoline-3-S-carboxylic acid (3-phenyl-propyl)amide trifluoroacetic salt] |  |  |  |  | 5.1 | 0.84 ± 0.08 | 2.4 | Ki (μ receptors [4]): 0.11 ± 0.02 nM; Ki (κ receptor): 49.6 ± 8.7 nM
